In data set [1] the target is NUAK family SNF1-like kinase 1 (Homo sapiens) (UniProt O60285). Nature of the data set: Inhibition of wild-type human partial length ARK5 (E25 to I332 residues) expressed in bacterial expression system assessed as residual activity at 1 uM by Kinomescan method relative to control.
Data set [2] deals with Homeodomain-interacting protein kinase 3 (Homo sapiens) (UniProt Q9H422). Nature of the data set: Inhibition of wild-type human partial length HIPK3 (M153 to N562 residues) expressed in mammalian expression system assessed as residual activity at 1 uM by Kinomescan method relative to control.
Data set [3] has as its target NUAK family SNF1-like kinase 2 (Homo sapiens) (UniProt Q9H093). Description: Inhibition of wild-type human partial length SNARK (P22 to A333 residues) expressed in mammalian expression system assessed as residual activity at 1 uM by Kinomescan method relative to control.
Data set [4] concerns the target Serine/threonine-protein kinase 38-like (Homo sapiens) (UniProt Q9Y2H1). Description: Inhibition of wild-type human partial length NDR2 (N34 to E447 residues) expressed in bacterial expression system assessed as residual activity at 1 uM by Kinomescan method relative to control.
Data set [5] addresses Serine/threonine-protein kinase PAK 4 (Homo sapiens) (UniProt O96013). Description: Inhibition of wild-type human partial length PAK4 (Q144 to R438 residues) expressed in bacterial expression system assessed as residual activity at 1 uM by Kinomescan method relative to control.
In data set [6] the target is Dual specificity mitogen-activated protein kinase kinase 1 (Homo sapiens) (UniProt Q02750). Nature of the data set: Inhibition of wild-type human full length MEK1 (M1 to V393 residues) expressed in mammalian expression system assessed as residual activity at 1 uM by Kinomescan method relative to control.
Data set [7] addresses Ephrin type-A receptor 1 (Homo sapiens) (UniProt P21709). Nature of the data set: Inhibition of wild-type human partial length EPHA1 (V588 to I913 residues) expressed in bacterial expression system assessed as residual activity at 1 uM by Kinomescan method relative to control.
Data set [8] has as its target MAP kinase-interacting serine/threonine-protein kinase 1 (Homo sapiens) (UniProt Q9BUB5). Nature of the data set: Inhibition of MNK1 (unknown origin) assessed as residual activity at 1 uM by Kinomescan method relative to control.
The target of data set [9] is Tyrosine-protein kinase FRK (Homo sapiens) (UniProt P42685). Nature of the data set: Inhibition of wild-type human partial length FRK (A215 to F503 residues) expressed in bacterial expression system assessed as residual activity at 1 uM by Kinomescan method relative to control.
The target of data set [10] is Dual specificity tyrosine-phosphorylation-regulated kinase 4 (Homo sapiens) (UniProt Q9NR20). Nature of the data set: Inhibition of DYRK4 (unknown origin) assessed as residual activity at 1 uM by Kinomescan method relative to control.
Data set [11] deals with Mitogen-activated protein kinase 12 (Homo sapiens) (UniProt P53778). Nature of the data set: Inhibition of wild-type human full length p38-gamma (M1 to L367 residues) expressed in mammalian expression system assessed as residual activity at 1 uM by Kinomescan method relative to control.
The target of data set [12] is Mitogen-activated protein kinase kinase kinase 7 (Homo sapiens) (UniProt O43318). Nature of the data set: Inhibition of wild-type human partial length TAK1 (M1 to Q303 residues) expressed in mammalian expression system assessed as residual activity at 1 uM by Kinomescan method relative to control.
In data set [13] the target is Hepatocyte growth factor receptor (Homo sapiens) (UniProt P08581). Nature of the data set: Inhibition of wild-type human partial length c-MET (D1010 to S1367 residues) expressed in bacterial expression system assessed as residual activity at 1 uM by Kinomescan method relative to control.
For data set [14], the target named is Cyclin-dependent kinase 1/cyclin B1 (Homo sapiens) (UniProt P06493+P14635). Nature of the data set: Inhibition of wild-type human full length CDK1 (M1 to M297 residues)/Cyclin B expressed in mammalian expression system assessed as residual activity at 1 uM by Kinomescan method relative to control.
For data set [15], the target named is Serine/threonine-protein kinase 3 (Homo sapiens) (UniProt Q13188). Nature of the data set: Inhibition of wild-type human partial length MST2 (D17 to E318 residues) expressed in bacterial expression system assessed as residual activity at 1 uM by Kinomescan method relative to control.
In data set [16] the target is Receptor-type tyrosine-protein kinase FLT3 (Homo sapiens) (UniProt P36888). Description: Inhibition of wild-type human partial length FLT3 (V592 to Y969 residues) expressed in bacterial expression system assessed as residual activity at 1 uM by Kinomescan method relative to control.
Data set [17] in a line: Unbound fraction in mouse blood. Type of data set: ADME, tissue-based.
Data set [18] addresses Mitogen-activated protein kinase kinase kinase 20 (Homo sapiens) (UniProt Q9NYL2). Nature of the data set: Inhibition of wild-type human partial length ZAK (M1 to L331 residues) expressed in bacterial expression system assessed as residual activity at 1 uM by Kinomescan method relative to control.
Data set [19] addresses Bone morphogenetic protein receptor type-1A (Homo sapiens) (UniProt P36894). Description: Inhibition of wild-type human partial length BMPR1A (Q214 to I532 residues) expressed in bacterial expression system assessed as residual activity at 1 uM by Kinomescan method relative to control.
Data set [20] concerns the target Insulin receptor-related protein (Homo sapiens) (UniProt P14616). Description: Inhibition of wild-type human partial length INSRR (R950 to E1278 residues) expressed in bacterial expression system assessed as residual activity at 1 uM by Kinomescan method relative to control.
For data set [21], the target named is T1, Interleukin-1 receptor-associated kinase 4 (Homo sapiens) (UniProt Q9NWZ3).
T1 sequence (whole entry): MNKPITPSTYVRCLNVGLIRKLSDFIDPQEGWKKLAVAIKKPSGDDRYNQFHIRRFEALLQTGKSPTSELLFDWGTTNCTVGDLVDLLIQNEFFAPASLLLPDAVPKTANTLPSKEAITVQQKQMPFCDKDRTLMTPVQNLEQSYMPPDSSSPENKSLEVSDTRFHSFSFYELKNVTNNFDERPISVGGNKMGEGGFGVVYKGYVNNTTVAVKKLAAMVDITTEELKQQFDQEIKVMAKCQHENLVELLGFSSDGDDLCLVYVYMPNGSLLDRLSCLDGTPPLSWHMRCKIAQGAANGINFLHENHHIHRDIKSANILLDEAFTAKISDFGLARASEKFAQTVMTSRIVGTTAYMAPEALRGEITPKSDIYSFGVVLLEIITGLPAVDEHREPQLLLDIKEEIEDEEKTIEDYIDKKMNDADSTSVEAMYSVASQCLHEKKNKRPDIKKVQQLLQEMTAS
Nature of the data set: Inhibition of wild-type human partial length IRAK4 (M1 to S460 residues) expressed in mammalian expression system assessed as residual activity at 1 uM by Kinomescan method relative to control.

Data set [22] deals with Protein-tyrosine kinase 6 (Homo sapiens) (UniProt Q13882). Description: Inhibition of wild-type human partial length BRK (L166 to T451 residues) expressed in bacterial expression system assessed as residual activity at 1 uM by Kinomescan method relative to control.
Data set [23] concerns the target Leukocyte tyrosine kinase receptor (Homo sapiens) (UniProt P29376). Description: Inhibition of wild-type human partial length LTK (P422 to S744 residues) expressed in bacterial expression system assessed as residual activity at 1 uM by Kinomescan method relative to control.

Each structure is given as a SMILES string.

The fraction unbound is free concentration divided by total concentration. High values mean weak binding, low ones extensive binding. Regarding `CCOc1nc(Nc2ccc(C(=O)N3CCOCC3)cc2OC)nc2[nH]ccc12`, the Activity was 47.6% in [1]; 98% in data set [2]; 98.5% in data set [3]; 96.8% in data set [4]; 99% in [5]; 100% in [6]. Besides, the Activity in [7] is 95.5%; in data set [8], 98.7%; in [9] it was 90.6%; in data set [10] it was 94.6%; in data set [11] it was 103%; in data set [12], 87.5%. The Activity came out at 104% in data set [13]; 92.2% in data set [14]; 99.3% in [15]; 92.6% in data set [16]; 97.2% in data set [18]; 94% in data set [19]. The Activity in data set [20] turned out to be 2.52%; in data set [21] it was 104%; in data set [22], 45.6%; in data set [23], 20.2%. Moreover, the fraction unbound in data set [17] worked out at 0.031.

The values are drawn from ChEMBL document CHEMBL4715821, “Discovery of 4-ethoxy-7H-pyrrolo[2,3-d]pyrimidin-2-amines as potent, selective and orally bioavailable LRRK2 inhibitors” (Bioorg Med Chem Lett, 2018).
